Experiments:
Format in all cases: in vivo
bemisia argentifolii = experiment: B.8 Silverleaf whitefly spray test on cotton plants; settings: 300 ppm; silverleaf whitefly adults on sprayed cotton; 3 days
From the text: B.8 Silverleaf Whitefly (bemisia argentifolii)
The active compounds were formulated in cyclohexanone as a 10,000 ppm solution supplied in tubes. The tubes were inserted into an automated electrostatic sprayer equipped with an atomizing nozzle and they served as stock solutions for which lower dilutions were made in 50% acetone:50% water (v/v). A nonionic surfactant (Kinetic®) was included in the solution at a volume of 0.01% (v/v).
Cotton plants at the cotyledon stage (one plant per pot) were sprayed by an automated electrostatic plant sprayer equipped with an atomizing spray nozzle. The plants were dried in the sprayer fume hood and then removed from the sprayer. Each pot was placed into a plastic cup and about 10 to 12 whitefly adults (approximately 3-5 days old) were introduced. The insects were collected using an aspirator and a nontoxic Tygon® tubing connected to a barrier pipette tip. The tip, containing the collected insects, was then gently inserted into the soil containing the treated plant, allowing insects to crawl out of the tip to reach the foliage for feeding. Cups were covered with a reusable screened lid. […] Mortality was assessed 3 days after treatment, compared to untreated control plants.

Ceratitis capitata = experiment: B.5 Mediterranean fruitfly microtiter plate diet test; settings: 120 h, Mediterranean fruitfly eggs and larvae on diet, 5 days, read-out: mortality in comparison with untreated controls
Experimental: B.5 Mediterranean Fruitfly (Ceratitis capitata)
For evaluating control of Mediterranean fruitfly (Ceratitis capitata) the test unit consisted of microtiter plates containing an insect diet and 50-80 C. capitata eggs.
The compounds were formulated using a solution containing 75% v/v water and 25% v/v DMSO. Different concentrations of formulated compounds were sprayed onto the insect diet at 5 μl, using a custom built micro atomizer, at two replications.
(§1) After application, microtiter plates were incubated at about 28±1° C. and about 80±5% relative humidity for 5 days. Egg and larval mortality was then visually assessed.

Plutella xylostella = experiment: B.3 Diamond back moth leaf dip test on Chinese cabbage; settings: foliar, recorded 24, 72 and 120 hours after treatment, read-out: mortality in comparison with untreated controls
Experimental: B.3 Diamond Back Moth (Plutella xylostella)
Leaves of Chinese cabbage were dipped in test solution and air-dried. Treated leaves were placed in petri dished lined with moist filter paper. Mortality was recorded 24, 72, and 120 hours after treatment.

Myzus persicae = experiment: B.4 Green peach aphid systemic test, artificial diet in 96-well plates; settings: 72 h, 3 days, read-out: mortality in comparison with untreated controls
From the text: B.4 Green Peach Aphid (Myzus persicae)
For evaluating control of green peach aphid (Myzus persicae) through systemic means the test unit consisted of 96-well-microtiter plates containing liquid artificial diet under an artificial membrane.
The compounds were formulated using a solution containing 75% v/v water and 25% v/v DMSO. Different concentrations of formulated compounds were pipetted into the aphid diet, using a custom built pipetter, at two replications.
After application, 5-8 adult aphids were placed on the artificial membrane inside the microtiter plate wells. The aphids were then allowed to suck on the treated aphid diet and incubated at about 23±1° C. and about 50±5% relative humidity for 3 days. Aphid mortality and fecundity was then visually assessed.

Anthonomus grandis = experiment: B.12 Boll weevil microtiter plate diet test; settings: 120 h, boll weevil eggs and larvae on diet, 5 days, read-out: mortality in comparison with untreated controls
Experimental: B.12 Boll Weevil (Anthonomus grandis)
For evaluating control of boll weevil (Anthonomus grandis) the test unit consisted of 24-well-microtiter plates containing an insect diet and 20-30 A. grandis eggs.
The compounds were formulated using a solution containing 75% v/v water and 25% v/v DMSO. Different concentrations of formulated compounds were sprayed onto the insect diet at 20 μl, using a custom built micro atomizer, at two replications.
After application, microtiter plates were incubated at about 23±1° C. and about 50±5% relative humidity for 5 days. Egg and larval mortality was then visually assessed.

Heliothis virescens = experiment: B.11 Tobacco budworm I microtiter plate diet test; settings: 120 h, tobacco budworm eggs and larvae on diet, 5 days, read-out: mortality in comparison with untreated controls
Experimental: B.11 Tobacco Budworm (Heliothis virescens) I
For evaluating control of tobacco budworm (Heliothis virescens) the test unit consisted of 96-well-microtiter plates containing an insect diet and 15-25 H. virescens eggs.
The compounds were formulated using a solution containing 75% v/v water and 25% v/v DMSO. Different concentrations of formulated compounds were sprayed onto the insect diet at 10 μl, using a custom built micro atomizer, at two replications.
as §1

Aphis craccivora = experiment: B.2 Cowpea aphid spray test on potted cowpea plants; settings: sprayed plants, assessed after 24, 72 and 120 hours, read-out: mortality in comparison with untreated controls
Experimental: B.2 Cowpea Aphid (Aphis craccivora)
Potted cowpea plants colonized with approximately 100-150 aphids of various stages were sprayed after the pest population had been recorded. Population reduction was assessed after 24, 72, and 120 hours.

Dichromothrips corbetti = experiment: B.6 Orchid thrips floral-immersion test; settings: 96 h, orchid thrips adults, 4 days, read-out: mortality in comparison with untreated controls
Experimental: B.6 Orchid Thrips (dichromothrips corbetti)
Dichromothrips corbetti adults used for bioassay were obtained from a colony maintained continuously under laboratory conditions. For testing purposes, the test compound was diluted to a concentration of 500 ppm (wt compound: vol diluent) in a 1:1 mixture of acetone:water (vol:vol), plus 0.01% vol/vol Kinetic® surfactant.
Thrips potency of each compound was evaluated by using a floral-immersion technique. Plastic petri dishes were used as test arenas. All petals of individual, intact orchid flowers were dipped into treatment solution and allowed to dry. Treated flowers were placed into individual petri dishes along with 10-15 adult thrips. The petri dishes were then covered with lids. All test arenas were held under continuous light and a temperature of about 28° C. for duration of the assay. After 4 days, the numbers of live thrips were counted on each flower, and along inner walls of each petri dish. The level of thrips mortality was extrapolated from pre-treatment thrips numbers.

SMILES	mortality in comparison with untreated controls (bemisia argentifolii)	mortality at 2500 ppm (Ceratitis capitata) [%]	mortality at 500 ppm (Plutella xylostella) [%]	mortality at 2500 ppm (Myzus persicae) [%]	mortality at 2500 ppm (Anthonomus grandis) [%]	mortality at 2500 ppm (Heliothis virescens) [%]	mortality at 500 ppm (Aphis craccivora) [%]	mortality at 500 ppm (Dichromothrips corbetti) [%]
CNC(=O)NN=Cc1ccc(N2CCC(c3cc(Cl)cc(Cl)c3)(C(F)(F)F)C2)cc1Cl (centres unmarked) [Compound 2-4]	at least 75%	–	–	–	–	–	–	–
O=C(NCC(F)(F)F)N/N=C/c1ccc(N2CC(c3cc(Cl)cc(Cl)c3)(C(F)(F)F)OC2=O)cc1Cl (centres unmarked) [Compound 3-1, 1-[(E)-[2-chloro-4-[5-(3,5-dichlorophenyl)-2-oxo-5-(trifluoromethyl)oxazolidin-3-yl]phenyl]methyleneamino]-3-(2,2,2-trifluoroethyl)urea]	–	≥ 75	≥ 75	≥ 75	≥ 75	≥ 75	≥ 75	≥ 75

Reference: patent US20130184320A1, “Imine Compounds” (BASF SE, priority 2010, published 2013)
